Results taken from article PMC6943726, “Discovery of 8-Amino-Substituted 2-Phenyl-2,7-Naphthyridinone Derivatives as New c-Kit/VEGFR-2 Kinase Inhibitors” (Molecules, 2019).

How the values were obtained:
Format in all cases: biochemical
[1] = biological target: T1, c-Kit (Homo sapiens, UniProt P10721); assay: HTRF enzyme assay with recombinant c-Kit kinase domain; settings: purified recombinant c-Kit kinase domain, HTRF; read-out: Inhibitory Activity, IC50, c-Kit
T1 construct: was evaluated using an enzyme assay with a recombinant kinase domain; purchased Invitrogen (Carlsbad, CA, US)
T1 sequence (P10721 589-937 limits assumed): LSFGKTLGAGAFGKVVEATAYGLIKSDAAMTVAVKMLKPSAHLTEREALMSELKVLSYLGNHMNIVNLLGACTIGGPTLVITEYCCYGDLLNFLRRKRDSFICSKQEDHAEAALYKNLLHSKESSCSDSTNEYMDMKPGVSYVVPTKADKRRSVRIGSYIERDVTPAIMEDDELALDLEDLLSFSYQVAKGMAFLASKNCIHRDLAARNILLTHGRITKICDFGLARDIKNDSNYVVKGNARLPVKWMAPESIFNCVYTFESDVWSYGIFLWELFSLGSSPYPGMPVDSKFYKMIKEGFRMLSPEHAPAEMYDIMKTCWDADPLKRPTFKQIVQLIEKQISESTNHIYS
Method: (§1) The ability of the synthesized compounds to inhibit MET, c-Kit, and VEGFR-2 activities was evaluated using an enzyme assay with a recombinant kinase domain [29]. Based on the structure activity relationship (SAR) of MET inhibitors, we proposed that the removal of the key diaryl ether fragments in compound 3 would result in a loss of MET activity.
(§2) The ability of compounds to inhibit the activity of three kinases (MET, c-Kit, and VEGFR-2) was tested in vitro [30]. Enzyme assays were run in homogeneous time-resolved fluorescence (HTRF) format in 384-well microtiter plates using purified kinases purchased from Invitrogen (Carlsbad, CA, US). The HTRF KinEASE TK kit (contains substrate-biotin, antibody-cryptate, streptavidin-XL665, 5×enzymatic buffer, and detection buffer) was purchased from Cisbio (Codolet, France), and the kinase assays were performed according to the manufacturer’s instructions. After the kinases and the compounds incubated at 25~30 °C for 5 min, the reactions were initiated by the addition of 2 μL of mixed substrate solution (mixed solution of ATP (Sigma, Shanghai, China) and substrate-biotin). The final concentrations of kinases were at EC80 and the total reaction volume was 8 μL. Plates were incubated at 30 °C for 30~60 min, then the reactions were quenched by the addition 8 μL mixed detection solution (mixed solution of antibody-cryptate and streptavidin-XL665 in detection buffer). The fluorescence excitation wavelength was […]. The fluorescence at 665 nm (acceptor emission wavelength) and 620 nm (donor emission wavelength) was measured with a PHERAstar FS plate reader (BMG, LABTECH, Ortenberg, Germany) using a time delay of 50 μs. All kinase assays were conducted using ATP concentrations below the enzyme Kmapp and kinase-specific biotinylated substrate peptides.
(§3) The data for dose responses were plotted as percentage of inhibition calculated with the data reduction formula 100 × [1 − (U1 − C2)/(C1 − C2)] versus concentration of compound, where U is the emission ratio of 665 nm and 620 nm of test sample, C1 is the average value obtained for solvent control (2% DMSO), and C2 is the average value obtained for no reaction control (no kinase sample). Inhibition curves were generated by plotting percentage of control activity versus log10 of the concentration of each […]. The IC50 values were calculated by nonlinear regression with Graphpad Prism 5 (GraphPad Software, San Diego, CA).

[2] = biological target: T2, MET (Homo sapiens, UniProt P08581); assay: HTRF enzyme assay with recombinant MET kinase domain; settings: purified recombinant MET kinase domain, read-out: Inhibitory Activity, IC50, MET
T2 construct: was evaluated using an enzyme assay with a recombinant kinase domain; purchased Invitrogen (Carlsbad, CA, US)
T2 sequence (P08581 1078-1345 limits assumed): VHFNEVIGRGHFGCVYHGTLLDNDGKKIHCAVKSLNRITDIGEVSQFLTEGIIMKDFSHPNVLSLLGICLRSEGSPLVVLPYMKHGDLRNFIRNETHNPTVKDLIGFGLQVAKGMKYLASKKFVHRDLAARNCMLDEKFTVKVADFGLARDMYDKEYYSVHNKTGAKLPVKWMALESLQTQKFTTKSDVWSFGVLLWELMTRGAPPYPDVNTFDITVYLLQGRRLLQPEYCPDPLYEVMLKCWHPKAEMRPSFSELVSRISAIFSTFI
Method: as §1, §2, §3

[3] = biological target: T3, VEGFR-2 (Homo sapiens, UniProt P35968); assay: HTRF enzyme assay with recombinant VEGFR-2 kinase domain; settings: purified recombinant VEGFR-2 kinase domain, HTRF; read-out: Inhibitory Activity, IC50, VEGFR-2
T3 construct: was evaluated using an enzyme assay with a recombinant kinase domain; purchased Invitrogen (Carlsbad, CA, US)
T3 sequence (P35968 834-1162 limits assumed): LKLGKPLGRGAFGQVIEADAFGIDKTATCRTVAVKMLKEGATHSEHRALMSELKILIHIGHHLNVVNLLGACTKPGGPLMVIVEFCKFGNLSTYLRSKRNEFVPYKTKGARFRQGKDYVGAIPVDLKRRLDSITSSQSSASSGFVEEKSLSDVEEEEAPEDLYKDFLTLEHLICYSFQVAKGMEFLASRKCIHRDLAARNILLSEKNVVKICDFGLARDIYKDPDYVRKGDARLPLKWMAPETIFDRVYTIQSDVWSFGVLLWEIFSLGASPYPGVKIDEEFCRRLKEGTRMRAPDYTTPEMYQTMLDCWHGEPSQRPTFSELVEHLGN
Method: as §1, §2, §3

IC50 [1] [µM] | IC50 [2] [µM] | IC50 [3] [µM] | Structure (SMILES)
> 5 | > 5 | > 5 | Cc1cc2ccnc(NCc3ccncc3)c2c(=O)n1-c1ccc(F)cc1 [Compound 10c, 2-(4-fluorophenyl)-3-methyl-8-((pyridin-4-ylmethyl)amino)-2,7-naphthyridin-1(2H)-one]
> 5 | > 5 | > 5 | Cc1cc2ccnc(NCc3ccncc3)c2c(=O)n1-c1ccccc1 [Compound 10g, 3-methyl-2-phenyl-8-((pyridin-4-ylmethyl)amino)-2,7-naphthyridin-1(2H)-one]
> 5 | > 5 | 1.03 | Cc1cc2ccnc(NCc3ccnc4ccccc34)c2c(=O)n1-c1ccccc1 [Compound 10h, 3-methyl-2-phenyl-8-((quinolin-4-ylmethyl)amino)-2,7-naphthyridin-1(2H)-one]
> 5 | > 5 | > 5 | Cc1cc2ccnc(Nc3cccnc3)c2c(=O)n1-c1ccccc1 [Compound 10e, 3-methyl-2-phenyl-8-(pyridin-3-ylamino)-2,7-naphthyridin-1(2H)-one]
